What was measured:
[1] = Solubility of the activity-assay substrate in water; type: physicochemical; settings: required DMSO to be dissolved
Description: A 10 mM stock of substrate was prepared by dissolving 5 mg of 4-methylumbelliferyl-N-acetyl-α-D-glucosaminide in 250 μL of 100% DMSO first. Naglu activity assay reaction buffer was then added to bring the volume up to […]. This 10 mM Substrate stock was further diluted 10-fold with reaction buffer to make the 1 mM substrate solution. Un-used 10 mM substrate stock was stored in −80° C. for up to one month. Samples and controls were pre-diluted in reaction buffer. 10 μL of each pre-diluted sample/control was applied in duplicate wells on a black clear bottom 96 well plate. 10 μL of reaction buffer was added to two wells of the plate and served as reaction buffer control. 75 μL of 1 mM substrate was added to each well that contained 10 μL of sample/control. The plate was sealed with plate sealer and wrapped with aluminum foil. The plate was placed in 37° C. Jitterbug and incubated with shaking setting at #1 for 1 hour. Prior to the completion of incubation, standards were prepared by diluting the stock (1000 μM) of 4-methlyumbelliferyl sodium salt down to 25 μM, 12.5 μM, 6.25 μM, 3.12 μM, 1.56 μM, 0.78 μM, 0 μM with water. At the completion of incubation, 85 μL of each of the seven standards was loaded on the plate in duplicate. […] The plate was measured for fluorescence at 360/460 (Excitation/Emission) using a Molecular Devices SpectraMax Plus M2 plate reader.

[2] = tested on: MSP III-B derived fibroblasts; settings: in vitro, Malinowska et al. (2009); cited from earlier work

CC(=O)N[C@H]1[C@@H](Oc2ccc3c(C)cc(=O)oc3c2)O[C@H](CO)[C@@H](O)[C@@H]1O [4-methylumbelliferyl-N-acetyl-α-D-glucosaminide]
solubility in water [1]: very low solubility in water

O=c1c(-c2ccc(O)cc2)coc2cc(O)cc(O)c12 [gensteine]
effect on GAG synthesis [2]: inhibit GAG synthesis

Reference: patent US9708590B2, “Crystal structure of human α-N-acetylglucosaminidase” (Shire Human Genetic Therapies, Inc., priority 2010, dated 2017)
